In patent US7211572B2 (Japan Tobacco Inc., priority 2003, dated 2007):
pIC50: −log10 of the molar value. Structures can show the parent of a compound that is named as a salt.

Biological target: T1, HIV integrase (Human immunodeficiency virus type 1 group M subtype B, UniProt P12497, F1332H)
T1 construct: HIV integrase full length gene; made in house; host or cells: Escherichia coli BL21(DE3), plasmid pET21a-INH
Assay: Determination of enzyme (HIV integrase) inhibitory activity
Assay type: biochemical
Conditions: recombinant HIV integrase (F185H), strand transfer ELISA, absorbance at 450 nm
Method in brief: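 Full-length integrase with F185H, expressed in E. coli and purified, was reacted for 60 min at 37 °C with compound and biotinylated donor DNA bound to streptavidin plates. Target DNA was added for 10 min, then anti-digoxigenin-peroxidase detection at A450; IC50 from % inhibition versus enzyme-free blank.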

`Cn1nc2c(c(O)c1=O)C(=O)N(Cc1cccc(Cl)c1)CC2` [Example 123, 6-(3-chlorobenzyl)-4-hydroxy-2-methyl-2,6,7,8-tetrahydropyrido[4,3-c]pyridazine-3,5-dione] and `Cn1nc2ccn(Cc3cccc(Cl)c3)c(=O)c2c(O)c1=O` [Example 145, 6-(3-chlorobenzyl)-4-hydroxy-2-methyl-2,6-dihydropyrido[4,3-c]pyridazine-3,5-dione] fall in the same range of pIC50: 6.00 to 7.00 for the first, 6.00 to 7.00 for the second.

Compared with `O=c1c(-c2cc3ccccc3o2)cn2ccn(Cc3cccc(Cl)c3)c(=O)c2c1O` [Example 124, 7-(benzofuran-2-yl)-2-(3-chlorobenzyl)-9-hydroxy-2H-pyrido[1,2-a]pyrazine-1,8-dione hydrochloride], `O=c1c(-c2ccccc2F)cn2ccn(Cc3cccc(Cl)c3)c(=O)c2c1O` [Example 130, 2-(3-chlorobenzyl)-7-(2-fluorophenyl)-9-hydroxy-2H-pyrido[1,2-a]pyrazine-1,8-dione hydrochloride] is higher in pIC50: 7.00 to 8.00 for the first, greater than 8.00 for the second.

Compared with `CC(C)(C)C(=O)c1cn2ccn(Cc3cccc(Cl)c3)c(=O)c2c(O)c1=O` [Example 125, 2-(3-chlorobenzyl)-7-(2,2-dimethylpropionyl)-9-hydroxy-2H-pyrido[1,2-a]pyrazine-1,8-dione hydrochloride], `CC(C)(C)COC(=O)c1cn2ccn(Cc3cccc(Cl)c3)c(=O)c2c(O)c1=O` [Example 159, 2,2-dimethylpropyl 2-(3-chlorobenzyl)-9-hydroxy-1,8-dioxo-1,8-dihydro-2H-pyrido[1,2-a]pyrazine-7-carboxylate] is lower in pIC50: greater than 8.00 for the first, 7.00 to 8.00 for the second. The first is the more potent here.

`CC(C)(C)Cc1cn2ccn(Cc3cccc(Cl)c3)c(=O)c2c(O)c1=O` [Example 126, 2-(3-chlorobenzyl)-7-(2,2-dimethylpropyl)-9-hydroxy-2H-pyrido[1,2-a]pyrazine-1,8-dione hydrochloride] and `CCc1cn2ccn(Cc3cccc(Cl)c3)c(=O)c2c(O)c1=O` [Example 134, 2-(3-chlorobenzyl)-7-ethyl-9-hydroxy-2H-pyrido[1,2-a]pyrazine-1,8-dione hydrochloride] fall in the same range of pIC50: 7.00 to 8.00 for the first, 7.00 to 8.00 for the second.

`O=c1c(-c2ccccc2C(F)(F)F)cn2ccn(Cc3cccc(Cl)c3)c(=O)c2c1O` [Example 127, 2-(3-chlorobenzyl)-9-hydroxy-7-(2-trifluoromethylphenyl)-2H-pyrido[1,2-a]pyrazine-1,8-dione hydrochloride] and `O=c1c(-c2ccccc2O)cn2ccn(Cc3cccc(Cl)c3)c(=O)c2c1O` [Example 141, 2-(3-chlorobenzyl)-9-hydroxy-7-(2-hydroxyphenyl)-2H-pyrido[1,2-a]pyrazine-1,8-dione] cannot be ordered by pIC50: greater than 8.00 for the first, greater than 8.00 for the second.

First: COc1cccc(-c2cn3ccn(Cc4cccc(Cl)c4)c(=O)c3c(O)c2=O)c1 [Example 128, 2-(3-chlorobenzyl)-9-hydroxy-7-(3-methoxyphenyl)-2H-pyrido[1,2-a]pyrazine-1,8-dione hydrochloride]
Second: O=c1c(-c2cccc(O)c2)cn2ccn(Cc3cccc(Cl)c3)c(=O)c2c1O [Example 136, 2-(3-chlorobenzyl)-9-hydroxy-7-(3-hydroxyphenyl)-2H-pyrido[1,2-a]pyrazine-1,8-dione]
The pIC50 of the first is lower: 7.00 to 8.00 for the first, greater than 8.00 for the second.

`CC(C)c1cn(Cc2cccc(Cl)c2)c(=O)c2c(O)c(=O)c(Br)cn12` [Example 129, 7-bromo-2-(3-chlorobenzyl)-9-hydroxy-4-isopropyl-2H-pyrido[1,2-a]pyrazine-1,8-dione hydrochloride] and `CC(C)c1cn(Cc2cccc(Cl)c2)c(=O)c2c(O)c(=O)c(-c3ccccc3)cn12` [Example 131, 2-(3-chlorobenzyl)-9-hydroxy-4-isopropyl-7-phenyl-2H-pyrido[1,2-a]pyrazine-1,8-dione hydrochloride] fall in the same range of pIC50: 7.00 to 8.00 for the first, 7.00 to 8.00 for the second.

`COc1ccccc1-c1cn2ccn(Cc3cccc(Cl)c3)c(=O)c2c(O)c1=O` [Example 132, 2-(3-chlorobenzyl)-9-hydroxy-7-(2-methoxyphenyl)-2H-pyrido[1,2-a]pyrazine-1,8-dione hydrochloride] and `CCc1ccccc1-c1cn2ccn(Cc3cccc(Cl)c3)c(=O)c2c(O)c1=O` [Example 138, 2-(3-chlorobenzyl)-7-(2-ethylphenyl)-9-hydroxy-2H-pyrido[1,2-a]pyrazine-1,8-dione hydrochloride] fall in the same range of pIC50: 7.00 to 8.00 for the first, 7.00 to 8.00 for the second.

Compared with `COc1ccc(-c2cn3ccn(Cc4cccc(Cl)c4)c(=O)c3c(O)c2=O)cc1` [Example 133, 2-(3-chlorobenzyl)-9-hydroxy-7-(4-methoxyphenyl)-2H-pyrido[1,2-a]pyrazine-1,8-dione hydrochloride], `O=c1c(-c2ccc(O)cc2)cn2ccn(Cc3cccc(Cl)c3)c(=O)c2c1O` [Example 142, 2-(3-chlorobenzyl)-9-hydroxy-7-(4-hydroxyphenyl)-2H-pyrido[1,2-a]pyrazine-1,8-dione] is lower in pIC50: greater than 8.00 for the first, 7.00 to 8.00 for the second. The first is the more potent here.

`Cc1cccc(C)c1-c1cn2ccn(Cc3cccc(Cl)c3)c(=O)c2c(O)c1=O` [Example 135, 2-(3-chlorobenzyl)-7-(2,6-dimethylphenyl)-9-hydroxy-2H-pyrido[1,2-a]pyrazine-1,8-dione hydrochloride] and `Cn1ccnc1-c1cn2ccn(Cc3cccc(Cl)c3)c(=O)c2c(O)c1=O` [Example 148, 2-(3-chlorobenzyl)-9-hydroxy-7-(1-methyl-1H-imidazol-2-yl)-2H-pyrido[1,2-a]pyrazine-1,8-dione hydrochloride] fall in the same range of pIC50: 7.00 to 8.00 for the first, 7.00 to 8.00 for the second.

`O=C(c1ccccc1)c1cn2ccn(Cc3cccc(Cl)c3)c(=O)c2c(O)c1=O` [Example 137, 7-benzoyl-2-(3-chlorobenzyl)-9-hydroxy-2H-pyrido[1,2-a]pyrazine-1,8-dione hydrochloride] and `O=c1c(Cc2ccccc2)cn2ccn(Cc3cccc(Cl)c3)c(=O)c2c1O` [Example 140, 7-benzyl-2-(3-chlorobenzyl)-9-hydroxy-2H-pyrido[1,2-a]pyrazine-1,8-dione hydrochloride] fall in the same range of pIC50: 7.00 to 8.00 for the first, 7.00 to 8.00 for the second.

Compared with `CC(C)c1cn(Cc2cccc(Cl)c2)c(=O)c2c(O)c(=O)c(-c3cccc(Cl)c3)cn12` [Example 139, 2-(3-chlorobenzyl)-7-(3-chlorophenyl)-9-hydroxy-4-isopropyl-2H-pyrido[1,2-a]pyrazine-1,8-dione], `CC(C)C(=O)c1cn2ccn(Cc3cccc(Cl)c3)c(=O)c2c(O)c1=O` [Example 149, 2-(3-chlorobenzyl)-9-hydroxy-7-isobutyryl-2H-pyrido[1,2-a]pyrazine-1,8-dione hydrochloride] is higher in pIC50: 7.00 to 8.00 for the first, greater than 8.00 for the second.

Compared with `Cn1cc2c(c(O)c1=O)C(=O)N(Cc1cccc(C(F)(F)F)c1)CC2` [Example 143, 8-hydroxy-6-methyl-2-(3-trifluoromethylbenzyl)-2,3,4,6-tetrahydro-2,6-naphthyridine-1,7-dione], `COc1cccc(CN2CCc3cn(C)c(=O)c(O)c3C2=O)c1` [Example 144, 8-hydroxy-2-(3-methoxybenzyl)-6-methyl-2,3,4,6-tetrahydro-2,6-naphthyridine-1,7-dione] is higher in pIC50: 6.00 to 7.00 for the first, 7.00 to 8.00 for the second.

First: O=c1ccn2ncn(Cc3cccc(Cl)c3)c(=O)c2c1O [Example 146, 3-(3-chlorobenzyl)-5-hydroxy-3H-pyrido[2,1-f][1,2,4]triazine-4,6-dione]
Second: O=c1ccn2ccn(Cc3cccc(Br)c3)c(=O)c2c1O [Example 158, 2-(3-bromobenzyl)-9-hydroxy-2H-pyrido[1,2-a]pyrazine-1,8-dione hydrochloride]
The pIC50 of the first is lower: 6.00 to 7.00 for the first, 7.00 to 8.00 for the second. The second is the more potent here.

First: COC(=O)c1cn2ccn(Cc3cccc(Cl)c3)c(=O)c2c(O)c1=O [Example 147, methyl 2-(3-chlorobenzyl)-9-hydroxy-1,8-dioxo-1,8-dihydro-2H-pyrido[1,2-a]pyrazine-7-carboxylate hydrochloride]
Second: CNC(=O)c1cn2ccn(Cc3cccc(Cl)c3)c(=O)c2c(O)c1=O [Example 155, N-methyl-2-(3-chlorobenzyl)-9-hydroxy-1,8-dioxo-1,8-dihydro-2H-pyrido[1,2-a]pyrazine-7-carboxamide]
The pIC50 of the first is lower: 7.00 to 8.00 for the first, greater than 8.00 for the second.

`CC(C)OC(=O)c1cn2ccn(Cc3cccc(Cl)c3)c(=O)c2c(O)c1=O` [Example 150, isopropyl 2-(3-chlorobenzyl)-9-hydroxy-1,8-dioxo-1,8-dihydro-2H-pyrido[1,2-a]pyrazine-7-carboxylate] and `CC(C)NC(=O)c1cn2ccn(Cc3cccc(Cl)c3)c(=O)c2c(O)c1=O` [Example 154, 2-(3-chlorobenzyl)-9-hydroxy-1,8-dioxo-1,8-dihydro-2H-pyrido[1,2-a]pyrazine-7-carboxylic acid isopropylamide] fall in the same range of pIC50: 7.00 to 8.00 for the first, 7.00 to 8.00 for the second.

`O=c1ccn2ccn(Cc3ccc(Cl)cc3)c(=O)c2c1O` [Example 151, 2-(4-chlorobenzyl)-9-hydroxy-2H-pyrido[1,2-a]pyrazine-1,8-dione hydrochloride] and `O=c1ccn2ccn(Cc3ccc(Br)cc3)c(=O)c2c1O` [Example 157, 2-(4-bromobenzyl)-9-hydroxy-2H-pyrido[1,2-a]pyrazine-1,8-dione hydrochloride] fall in the same range of pIC50: 7.00 to 8.00 for the first, 7.00 to 8.00 for the second.

Compared with `O=C(O)c1cn2ccn(Cc3cccc(Cl)c3)c(=O)c2c(O)c1=O` [Example 152, 2-(3-chlorobenzyl)-9-hydroxy-1,8-dioxo-1,8-dihydro-2H-pyrido[1,2-a]pyrazine-7-carboxylic acid hydrochloride], `CN(C)C(=O)c1cn2ccn(Cc3cccc(Cl)c3)c(=O)c2c(O)c1=O` [Example 153, N,N-dimethyl-2-(3-chlorobenzyl)-9-hydroxy-1,8-dioxo-1,8-dihydro-2H-pyrido[1,2-a]pyrazine-7-carboxamide] is higher in pIC50: 6.00 to 7.00 for the first, 7.00 to 8.00 for the second.

`CCN(CC)C(=O)c1cn2ccn(Cc3cccc(Cl)c3)c(=O)c2c(O)c1=O` [Example 156, N,N-diethyl-2-(3-chlorobenzyl)-9-hydroxy-1,8-dioxo-1,8-dihydro-2H-pyrido[1,2-a]pyrazine-7-carboxamide] and `O=C(OC1CCCCC1)c1cn2ccn(Cc3cccc(Cl)c3)c(=O)c2c(O)c1=O` [Example 160, cyclohexyl 2-(3-chlorobenzyl)-9-hydroxy-1,8-dioxo-1,8-dihydro-2H-pyrido[1,2-a]pyrazine-7-carboxylate] fall in the same range of pIC50: 7.00 to 8.00 for the first, 7.00 to 8.00 for the second.
